# Experimental data: patent US20160095867A1, “BET INHIBITION THERAPY FOR HEART DISEASE” (DANA-FARBER CANCER INSTITUTE, INC., priority 2013, published 2016)
# Assays:
# [1] = biological target: T1, BRD4 (Rattus norvegicus, UniProt A0A8I6A216); test: ChIP-qPCR of BRD4 and Pol II at the IL6 proximal promoter in NRVM; type: cell-based; conditions: JQ1 500 nM, PE 100 μM, 90 min
# T1 construct: endogenous in cells; host or cells: NRVM (primary neonatal rat ventricular cardiomyocytes)
# Description: NRVM were plated in 15 cm dishes at 5×10^6 cells/dish. Chromatin pooled from approximately 15×10^6 NRVM were used for each immunoprecipitation. After indicated treatments, NRVM were fixed directly on the dish with 1% formaldehyde for 10 minutes followed by quenching with 0.125M glycine for 5 minutes. Chromatin was extracted, followed by shearing on a BioRuptor (Diagenode; total 16 cycles, hi-power, 30 sec on/off). The sonicated chromatin was immunoprecipitated with 5 μg of antibody bound to Dynabeads (Invitrogen) followed by extensive washing and elution. Immunoprecipitate and input chromatin samples were then reverse cross-linked followed by purification of genomic DNA. Target and non-target regions of genomic DNA were amplified by qRT-PCR in both the immunoprecipitates and input samples using Sybrgreen chemistry. Enrichment data were analyzed by calculating the immunoprecipitated DNA percentage of input DNA for each sample as previously described (Ott et al., 2012). Antibodies used in ChIP were BRD4 (Bethyl #A301-985A) and RNA Polymerase II (Santa Cruz N-20, sc-899).
# [2] = system: NRVM; test: PE-mediated pathologic gene induction in NRVM (qRT-PCR, gene expression profiling); type: cell-based, rat
# Description: NRVM were isolated from the hearts of 2 day old Sprague-Dawley rat pups (Charles River) and maintained under standard conditions as described (Haldar et al., 2010). The cells were differentially plated for 1.5 h in cell culture dishes to remove contaminating non-myocytes. Unless otherwise stated, NRVM were plated at a density of 10^5 cells/mL. Cells were initially plated in growth medium (DMEM supplemented with 5% FBS, 100 U/mL penicillin-streptomycin, and 2 mM L-glutamine) for 24-36 hours and maintained in serum-free media thereafter (DMEM supplemented with 0.1% BSA, 1% insulin-transferrin-selenium liquid media supplement (Sigma 13146), 100 U/mL penicillin-streptomycin, and 2 mM L-glutamine). Media was changed every 2-3 days. Prior to stimulation with agonists, NRVM were maintained in serum-free medium for 48-72 hours. For hypertrophic stimulation, NRVM were incubated with JQ1 versus DMSO at indicated concentrations for 6 h followed by stimulation with PE (100 μM) for indicated timepoints.
# For tissue RNA, a 10-20 mg piece of mouse heart tissue was preserved in RNA Later stabilization reagent (Qiagen) followed by mechanical disruption/homogenization in PureZOL (BioRad) on a TissueLyser (Qiagen) using stainless steel beads (Qiagen). The aqueous phase was extracted with chloroform. RNA was purified from the aqueous phase using the Aurum purification kit (BioRad #732-6830) following manufacturer's instructions. For cellular samples, total RNA from NRVM was isolated using the High Pure RNA isolation kit (Roche #11828665001) with on-column DNAase treatment according to manufacturer's directions. Purified RNA was reverse transcribed to complementary DNA using the iScript™ RT Supermix (Biorad #170-8841) following manufacturer's protocol. Quantitative real-time PCR was performed using TaqMan chemistry (Fast Start Universal Probe Master (Roche cat#4914058001) and labeled probes from the Roche Universal Probe Library System) on a Roche LightCycler. Relative expression was calculated using the AACt-method with normalization to constitutive genes as indicated.
# To determine the transcriptional effects of BET bromodomain inhibition during hypertrophic transformation, gene expression profiling (GEP) studies were performed in cultured NRVM at baseline and after PE stimulation (1.5, 6, 48 h) in the presence or absence of JQ1. These three timepoints were assessed to capture induction of early response genes such as c-Myc (Starksen et al., 1986) and the final hypertrophic gene program. […] A heat map of genes selected based on the highest magnitude of PE-mediated changes illustrates each of these clusters (FIG. 3A). […]
# [3] = system: mice with myocardial infarction (MI); test: Large anterior wall myocardial infarction (permanent proximal LAD ligation) model; type: in vivo, mouse; conditions: 25 or 50 mg/kg/day IP from postoperative day 5
# Description: Mice were subjected to permanent proximal LAD ligation to create a large anterior wall myocardial infarction (MI). JQ1 or vehicle was begun at the indicated doses (25 mg/kg/day or 50 mg/kg/day, intraperitoneal injection) on postoperative day 5. […] JQ1 attenuates the development of (FIGS. 12B and 15B) LV systolic dysfunction, (FIGS. 12C and 15C) LV cavity dilation, (FIGS. 12D and 15D) LV wall thickening, and (FIGS. 12E and 15E) cardiomegaly after a large anterior wall myocardial infarction. (FIG. 12—N=5 per group; FIG. 15—N=5 in sham group, N=10 in MI group). […] After a myocardial infarction, abnormal remodeling of the heart occurs in distant areas of non-infarcted myocardium, leading to cardiac dilation, enlargement, and contractile dysfunction. This is a very common cause of heart failure. […] Neither this model nor the TAC models involve atherosclerosis. Therefore, the ability to protect the heart in these settings are unrelated to any effects on atherosclerosis.
smiles,measurement,setting,value
Cc1sc2c(c1C)C(c1ccc(Cl)cc1)=N[C@@H](CC(=O)OC(C)(C)C)c1nnc(C)n1-2 [JQ1],recruitment of endogenous BRD4 and Pol II to the proximal promoter of IL6 in response to PE,[1],blocked this recruitment
same,"PE-mediated gene induction, global gene expression profiling","[2]; 500 nM JQ1, 100 μM PE, 1.5, 6, 48 h",attenuate or completely abrogate
same,PE-mediated c-myc induction (qRT-PCR),"[2]; JQ1 500 nM, PE 100 μM",does not suppress
same,PE-mediated induction of IL6 (qRT-PCR),"[2]; JQ1 500 nM, PE 100 μM",significantly attenuated
same,"PE mediated pathologic gene induction (hypertrophic marker genes, qRT-PCR)","[2]; JQ1 500 nM, PE 100 μM, 48 h",significantly blocked
same,development of LV cavity dilation after MI,[3],attenuates
same,development of LV systolic dysfunction after MI,[3],attenuates
same,development of LV wall thickening after MI,[3],attenuates
same,development of cardiomegaly after MI,[3],attenuates
same,"mortality, myocardial rupture, LV aneurysm formation vs. vehicle control",[3],"No excess mortality, myocardial rupture, and LV aneurysm formation"
